# Experimental data taken from ChEMBL document CHEMBL1139926, “Identification of 6-substituted 4-arylsulfonyl-1,4-diazepane-2,5-diones as a novel scaffold for human chymase inhibitors” (Bioorg Med Chem Lett, 2007).
# Columns and labels:
# Chymase = target: T1, Chymase (Homo sapiens, UniProt P23946); assay: Inhibition of human recombinant chymase
# T1 sequence (P23946 whole entry): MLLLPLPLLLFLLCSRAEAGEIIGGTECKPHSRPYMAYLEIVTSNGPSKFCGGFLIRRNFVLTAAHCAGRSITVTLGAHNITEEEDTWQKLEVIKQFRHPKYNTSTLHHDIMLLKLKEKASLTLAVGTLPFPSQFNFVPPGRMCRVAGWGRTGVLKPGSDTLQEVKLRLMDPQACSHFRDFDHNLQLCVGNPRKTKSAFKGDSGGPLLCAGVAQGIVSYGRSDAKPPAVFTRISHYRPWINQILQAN
# [1] = Inhibition of bovine pancreatic alpha chymotrypsin; set-up: species or system Bos taurus
# Cathepsin G = target: T2, Cathepsin G (Homo sapiens, UniProt P08311); assay: Inhibition of human neutrophil cathepsin G
# T2 sequence (P08311 whole entry): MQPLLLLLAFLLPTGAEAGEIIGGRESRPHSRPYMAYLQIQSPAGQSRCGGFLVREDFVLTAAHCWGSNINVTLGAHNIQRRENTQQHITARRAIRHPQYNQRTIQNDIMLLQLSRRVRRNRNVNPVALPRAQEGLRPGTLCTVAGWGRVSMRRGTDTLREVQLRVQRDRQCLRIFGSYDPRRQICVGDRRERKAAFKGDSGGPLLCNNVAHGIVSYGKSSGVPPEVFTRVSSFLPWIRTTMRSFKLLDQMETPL
# [2] = Inhibition of bovine pancreatic trypsin; set-up: species or system Bos taurus
# Neutrophil elastase = target: T3, Neutrophil elastase (Homo sapiens, UniProt P08246); assay: Inhibition of human neutrophil elastase
# T3 sequence (P08246 whole entry): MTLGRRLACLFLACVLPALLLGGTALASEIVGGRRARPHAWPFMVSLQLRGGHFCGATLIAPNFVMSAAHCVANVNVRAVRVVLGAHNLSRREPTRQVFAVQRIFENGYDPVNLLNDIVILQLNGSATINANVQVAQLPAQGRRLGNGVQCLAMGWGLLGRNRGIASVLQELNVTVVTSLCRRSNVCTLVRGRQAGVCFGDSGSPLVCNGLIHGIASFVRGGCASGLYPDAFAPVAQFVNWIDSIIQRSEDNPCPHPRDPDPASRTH
SMILES,IC50 (Chymase),also measured
O=C1CN(S(=O)(=O)c2ccc(Cl)cc2)C(=O)C(Cc2ccc3ccccc3c2)CN1 (racemic),> 10 µM,–
O=C1CN(S(=O)(=O)c2ccc(Cl)cc2)C(=O)C(Cc2cccnc2)CN1 (racemic),> 10 µM,–
O=C1CN(S(=O)(=O)c2ccc(Cl)cc2)C(=O)C(Cc2ccncc2)CN1 (racemic),> 10 µM,–
COc1ccc(Cl)cc1CC1CNC(=O)CN(S(=O)(=O)c2ccc(Cl)cc2)C1=O (racemic),–,IC50 [1]: 0.3 µM; IC50 (Cathepsin G): 2.9 µM; IC50 [2]: > 10 µM; IC50 (Neutrophil elastase): > 10 µM
O=C1CN(S(=O)(=O)c2ccc(Cl)cc2)C(=O)C(CC2CCCCC2)CN1 (racemic),> 10 µM,–
CC(C)C[C@H](NC(=O)[C@@H](NC(=O)N[C@@H](Cc1ccccc1)C(=O)O)C1CCN=C(N)N1)C(=O)N[C@H](C=O)Cc1ccccc1 (some centres undefined) [CHYMOSTATIN],0.043 µM,–
